Experimental findings from patent US20240417405A1, “Substituted Spiro Derivatives” (Janssen Pharmaceutica NV, priority 2021, published 2024) are described below.

Structures are written as SMILES. Read-outs that look alike come from different tables or passages of the source.

Assay [1] concerns the target T1, menin/MLL (terbium chelate-labeled menin, FITC-MBM1 peptide) (Homo sapiens, UniProt O00255, T541A).
T1 construct: Menin (a.a 1-610-6xhis tag)
T1 sequence (O00255 with tags, fused parts or gaps T541A): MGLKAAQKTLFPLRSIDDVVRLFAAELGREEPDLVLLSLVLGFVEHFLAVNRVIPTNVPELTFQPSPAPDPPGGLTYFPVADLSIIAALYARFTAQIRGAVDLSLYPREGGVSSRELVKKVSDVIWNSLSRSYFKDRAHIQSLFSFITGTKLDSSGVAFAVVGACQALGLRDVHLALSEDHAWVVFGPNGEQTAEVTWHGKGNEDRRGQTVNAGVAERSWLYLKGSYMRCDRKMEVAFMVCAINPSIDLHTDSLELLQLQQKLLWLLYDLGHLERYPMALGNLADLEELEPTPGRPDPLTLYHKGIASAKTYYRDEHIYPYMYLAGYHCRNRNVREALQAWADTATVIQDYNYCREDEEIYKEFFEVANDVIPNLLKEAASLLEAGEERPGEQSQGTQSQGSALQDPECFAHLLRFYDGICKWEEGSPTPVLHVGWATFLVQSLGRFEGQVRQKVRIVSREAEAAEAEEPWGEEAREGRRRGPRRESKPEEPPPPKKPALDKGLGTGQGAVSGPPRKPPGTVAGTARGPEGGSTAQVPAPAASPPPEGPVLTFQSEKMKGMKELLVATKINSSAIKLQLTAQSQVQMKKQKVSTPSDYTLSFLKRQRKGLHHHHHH
Put plainly: Menin/MLL homogenous time-resolved fluorescence (HTRF) assay. The conditions noted are these: 30 min incubation. Format: binding. An outline of the steps: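 Displacement of FITC-labeled MBM1 peptide (75 nM) from terbium-labeled menin 1-610 (200 pM) measured by HTRF emission ratio. Eleven four-fold dilutions, typically from 10 μM, normalised to saturating-competitor and no-compound controls; IC50 from four-parameter logistic.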

Assay [2] has as its system MOLM14 cells. Kind of assay: Proliferation assay, spheroid-like growth, MOLM14 (MLL-AF9 rearranged). Format: cell-based, human. The conditions noted are these: 8 days, confluence as measure of spheroid size, read-out: spheroid assay_OneTime MOLM14 IC50. An outline of the steps:
(§1)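 Read-out is spheroid confluence from live-cell images taken on day 8, scaled between DMSO-treated wells (0% cytotoxicity) and a low control such as 1 μM staurosporin. Cells were exposed to compound for 8 days in low-attachment plates; KO-52 served as the MLL-wildtype counterscreen.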

Assay [3] deals with KO-52 cells. Kind of assay: Proliferation assay, spheroid-like growth, KO-52 (MLL wildtype control cell line). Format: cell-based, human. The settings on record: KO-52 control cells, 8 days, confluence as measure of spheroid size, read-out: spheroid assay_OneTime KO-52 IC50. An outline of the steps: as §1

With `CC(C)[C@@H]([C@H]1C[C@@H](N2CCC(O)CC2)C1)N1CC2(CCN(c3ncnnc3Oc3ccc(F)cc3-c3cncnc3C3CC3)C2)C1` (single isomer, unassigned) [Compound 88], the IC50 in assay [1] is 2.3 nM; in assay [2] (Homo sapiens, MOLM-14, 192 h) it was 410 nM; in assay [3] (Homo sapiens, 192 h), more than 15000 nM.

With `CC(C)[C@@H]([C@H]1C[C@@H](N2CC[C@@H](C(=O)N(C)C)C2)C1)N1CC2(CCN(c3ncnnc3Oc3ccc(F)cc3-c3cnncc3C3CC3)C2)C1` (single isomer, unassigned) [Compound 110], the IC50 turned out to be 0.1 nM in assay [1]; 12 nM in assay [2] (Homo sapiens, MOLM-14, 192 h); 6840 nM in assay [3] (Homo sapiens, 192 h).

On to `CC(C)[C@@H]([C@H]1C[C@@H](N2CCC[C@@H](O)C2)C1)N1CC2(CCN(c3ncnnc3Oc3ccc(F)cc3-c3cccnc3C3CC3)C2)C1` (single isomer, unassigned) [Compound 93], for which the IC50 in assay [1] was 0.1 nM; in assay [2] (Homo sapiens, MOLM-14, 192 h), 3 nM; in assay [3] (Homo sapiens, 192 h) it was 490 nM.

In the case of `CC(C)[C@H]([C@H]1C[C@@H](N2CCC[C@H](O)C2)C1)N1CC2(CCN(c3ncnnc3Oc3ccc(F)cc3-c3cccnc3C3CC3)C2)C1` (single isomer, unassigned) [Compound 78], the 50% inhibitory concentration (IC50) in assay [1] worked out at 2.9 nM; in assay [2] (Homo sapiens, MOLM-14, 192 h) it was 630 nM; in assay [3] (Homo sapiens, 192 h), 4640 nM.

For the compound `CC(C)C([C@H]1C[C@@H](N2CCC(C(=O)N(C)C)CC2)C1)N1CC2(CCN(c3ncnnc3Oc3ccc(F)cc3-c3cncnc3C3CC3)C2)C1` (stereo partly drawn) [Compound 131], the IC50 in assay [1] is 0.2 nM; in assay [2] (Homo sapiens, MOLM-14, 192 h) it was 50 nM; in assay [3] (Homo sapiens, 192 h), 6200 nM.

Consider `CC(C)[C@H]([C@H]1C[C@H](N2CC[C@@H](C(C)(C)O)C2)C1)N1CC2(CCN(c3ncnnc3Oc3ccc(F)cc3-c3cncnc3C3CC3)C2)C1` (single isomer, unassigned) [Compound 71], for which the 50% inhibitory concentration (IC50) in assay [1] was 0.1 nM; in assay [2] (Homo sapiens, MOLM-14, 192 h) it was 60 nM; in assay [3] (Homo sapiens, 192 h), 9730 nM.

In the case of `CC(C)[C@H]([C@H]1C[C@@H](N2CCC(C)(C(=O)N(C)C)CC2)C1)N1CC2(CCN(c3ncnnc3Oc3ccc(F)cc3-c3cncnc3C3CC3)C2)C1` (single isomer, unassigned) [Compound 62], the concentration for half-maximal inhibition (IC50) in assay [1] was 0.1 nM; in assay [2] (Homo sapiens, MOLM-14, 192 h), 4 nM; in assay [3] (Homo sapiens, 192 h), 6260 nM.

Take `CC(C)[C@H]([C@H]1C[C@@H](N2C[C@@H](O)C3(CC3)C2)C1)N1CC2(CCN(c3ncnnc3Oc3ccc(F)cc3-c3cncnc3C3CC3)C2)C1` (single isomer, unassigned) [Compound 46]: the IC50 in assay [1] is 0.1 nM; in assay [2] (Homo sapiens, MOLM-14, 192 h) it was 2 nM; in assay [3] (Homo sapiens, 192 h) it was 5930 nM.

Turning to `CC(C)[C@H]([C@H]1C[C@H](N2CC3(COC3)C2)C1)N1CC2(CCN(c3ncnnc3Oc3ccc(F)cc3-c3cnncc3C3CC3)C2)C1` (single isomer, unassigned) [Compound 83], the 50% inhibitory concentration (IC50) in assay [1] is 1.6 nM; in assay [2] (Homo sapiens, MOLM-14, 192 h), 980 nM; in assay [3] (Homo sapiens, 192 h), more than 15000 nM.

Consider `CC(=O)N1CC2(C1)CN([C@H]1C[C@@H]([C@H](C(C)C)N3CC4(CCN(c5ncnnc5Oc5ccc(F)cc5-c5cnc(C)cc5C5CC5)C4)C3)C1)C2` (single isomer, unassigned) [Compound 371], for which the IC50 amounted to 0.15 nM in assay [1]; 3 nM in assay [2] (Homo sapiens, MOLM-14, 192 h); 10100 nM in assay [3] (Homo sapiens, 192 h).

Take `CC(C)[C@@H](C1CC2(C1)CN(CC1COC1)C2)N1CC2(CCN(c3ncnnc3Oc3ccc(F)cc3-c3cncnc3C3CC3)C2)C1` (single isomer, unassigned) [Compound 157]: the IC50 in assay [1] is 0.2 nM; in assay [2] (Homo sapiens, MOLM-14, 192 h), 120 nM; in assay [3] (Homo sapiens, 192 h), 7770 nM.

`CC(C)[C@H]([C@H]1C[C@@H](N2CC3(CCO3)C2)C1)N1CC2(CCN(c3ncnnc3Oc3ccc(F)cc3-c3cncnc3C3CC3)C2)C1` (single isomer, unassigned) [Compound 145]: the IC50 in assay [1] came to 0.2 nM; in assay [2] (Homo sapiens, MOLM-14, 192 h), 6 nM; in assay [3] (Homo sapiens, 192 h), 3580 nM.

Regarding `CC(C)[C@@H]([C@H]1C[C@H](N2CC3(COC3)C2)C1)N1CC2(CCN(c3ncnnc3Oc3ccc(F)cc3-c3cnncc3C3CC3)C2)C1` (single isomer, unassigned) [Compound 107], the IC50 in assay [1] was 0.1 nM; in assay [2] (Homo sapiens, MOLM-14, 192 h), 76 nM; in assay [3] (Homo sapiens, 192 h), more than 15000 nM.

Take `CC(C)[C@H]([C@H]1C[C@@H](Nc2ncc(C(=O)N(C)C)o2)C1)N1CC2(CCN(c3ncnnc3Oc3ccc(F)cc3-c3cncnc3C3CC3)C2)C1` (single isomer, unassigned) [Compound 435]: the 50% inhibitory concentration (IC50) in assay [1] was 0.17 nM; in assay [2] (Homo sapiens, MOLM-14, 192 h), 3 nM; in assay [3] (Homo sapiens, 192 h) it was 2470 nM.

In the case of `C[C@H]([C@H]1C[C@@H](NC(=O)OC(C)(C)C)C1)N1CC2(CCN(c3ncnnc3Oc3ccc(F)cc3-c3cncnc3C3CC3)C2)C1` [Compound 512a], the IC50 amounted to 29.8 nM in assay [1], 40 nM in assay [2] and 310 nM in assay [3].

Regarding `CC(=O)N1CC2CN([C@H]3C[C@@H]([C@H](C(C)C)N4CC5(CCN(c6ncnnc6Oc6ccc(F)cc6-c6cnc(C)nc6C6CC6)C5)C4)C3)CC2C1` (stereo partly drawn) [Compound 377], the IC50 in assay [1] stood at 0.137 nM; in assay [2], 2.7 nM; in assay [3] (Homo sapiens, 192 h), 4840 nM.

On to `CC(C)C([C@H]1C[C@@H](N2CCOCC2)C1)N1CC2(CCN(c3ncnnc3Oc3ccc(F)cc3-c3cncnc3C3CC3)C2)C1` (stereo partly drawn) [Compound 120], for which the half-maximal inhibitory concentration (IC50) in assay [1] was 0.3 nM; in assay [2] (Homo sapiens, MOLM-14, 192 h), 73 nM; in assay [3] (Homo sapiens, 192 h), more than 15000 nM.

For the compound `CNC(=O)c1cnc(N[C@H]2C[C@@H]([C@@H](C(C)C)N3CC4(CCN(c5ncnnc5Oc5ccc(F)cc5-c5cncnc5C5CC5)C4)C3)C2)s1` (single isomer, unassigned) [Compound 437], the concentration for half-maximal inhibition (IC50) came to 0.05 nM in assay [1]; 3.3 nM in assay [2] (Homo sapiens, MOLM-14, 192 h); 4700 nM in assay [3] (Homo sapiens, 192 h).

`CC(C)[C@H]([C@H]1C[C@H](N2CC(O)C3(CC3)C2)C1)N1CC2(CCN(c3ncnnc3Oc3ccc(F)cc3-c3cncnc3C3CC3)C2)C1` (mixture of isomers) [Compound 43]: the concentration for half-maximal inhibition (IC50) in assay [1] stood at 0.1 nM; in assay [2] (Homo sapiens, MOLM-14, 192 h), 42 nM; in assay [3] (Homo sapiens, 192 h), 9960 nM.

With `CC(C)[C@H]([C@H]1C[C@]2(COC(=O)N2)C1)N1CC2(CCN(c3ncnnc3Oc3ccc(F)cc3-c3ncccc3C3CC3)C2)C1` (single isomer, unassigned) [Compound 321], the concentration for half-maximal inhibition (IC50) in assay [1] was 91.1 nM; in assay [2] (Homo sapiens, MOLM-14, 192 h), more than 940 nM; in assay [3] (Homo sapiens, 192 h) it was more than 15000 nM.

Take `CC(C)[C@@H]([C@H]1C[C@@H](N2CC[C@](C)(O)C2)C1)N1CC2(CCN(c3ncnnc3Oc3ccc(F)cc3-c3ncncc3C3CC3)C2)C1` (single isomer, unassigned) [Compound 99]: the IC50 in assay [1] is 0.1 nM; in assay [2] (Homo sapiens, MOLM-14, 192 h), 2 nM; in assay [3] (Homo sapiens, 192 h) it was 2000 nM.

As for `CC(=O)N[C@H]1C[C@@H](C(C(C)C)N2CC3(CCN(c4ncnnc4Oc4ccc(F)cc4-c4cccc(=O)n4C4CC4)C3)C2)C1` (stereo partly drawn) [Compound 188], the IC50 in assay [1] was 0.2 nM; in assay [2] (Homo sapiens, MOLM-14, 192 h), 520 nM; in assay [3] (Homo sapiens, 192 h) it was more than 15000 nM.

For the compound `CC(C)C([C@H]1C[C@@H](N2CCC(O)CC2)C1)N1CC2(CCN(c3ncnnc3Oc3ccc(F)cc3-c3cncnc3C3CC3)C2)C1` (stereo partly drawn) [Compound 121], the IC50 came to 0.1 nM in assay [1]; 7 nM in assay [2] (Homo sapiens, MOLM-14, 192 h); 2780 nM in assay [3] (Homo sapiens, 192 h).

As to `CC(=O)N1CCC2C1CCN2[C@H]1C[C@@H]([C@@H](C(C)C)N2CC3(CCN(c4ncnnc4Oc4ccc(F)cc4-c4cncnc4C4CC4)C3)C2)C1` (single isomer, unassigned) [Compound 54], the half-maximal inhibitory concentration (IC50) in assay [1] came out at 0.3 nM; in assay [2], 28 nM; in assay [3] (Homo sapiens, 192 h), 4960 nM.

With `CC(C)C(C1CCN(CC2COC2)CC1)N1CC2(CCN(c3ncnnc3Oc3ccc(F)cc3-c3ncncc3C3CC3)C2)C1` (stereo not drawn) [Compound 203], the half-maximal inhibitory concentration (IC50) came to 0.8 nM in assay [1]; 300 nM in assay [2] (Homo sapiens, MOLM-14, 192 h); 1860 nM in assay [3] (Homo sapiens, 192 h).

With `CC(C)[C@@H](C1CC2(CCN2CC2COC2)C1)N1CC2(CCN(c3ncnnc3Oc3ccc(F)cc3-c3cncnc3C3CC3)C2)C1` (single isomer, unassigned) [Compound 158], the half-maximal inhibitory concentration (IC50) in assay [1] was 0.8 nM; in assay [2] (Homo sapiens, MOLM-14, 192 h) it was 480 nM; in assay [3] (Homo sapiens, 192 h) it was more than 15000 nM.
